Measured values from article PMC4497506 (Journal of medicinal chemistry, 2015).
*1 amine or outer side, *2 acyl side, *3 side chain or, on linkers, in order; H or OH if unused. Where a SMILES comes first, the peptide text is derived from it. [ ]: non-standard residue; d: D form. X1 = O=C([C@@H]1C[C@H](n2cc([C]34[CH]5[CH]6[CH]7[CH]3[Fe]6754389%10[CH]4[CH]3[CH]8[CH]9[CH]4%10)nn2)CN1[*:1])[*:2]; X2 = O=C([C@@H]1C[C@H](n2nncc2[C]23[CH]4[CH]5[CH]6[CH]2[Fe]56432789[CH]3[CH]2[CH]7[CH]8[CH]39)CN1[*:1])[*:2]; Bta = N[C@@H](Cc1csc2ccccc12)C(=O)O

Key:
gp120YU-2 S375H = gp120YU-2 S375H (Human immunodeficiency virus type 1 group M subtype B, UniProt P35961, S370H); assay: Competition SPR: inhibition of gp120 S375H binding to sCD4; parameters: species or system HIV-1
wt gp120YU-2 = wt gp120YU-2 (Human immunodeficiency virus type 1 group M subtype B, UniProt P35961); assay: Competition SPR: inhibition of wt gp120YU-2 binding to immobilized sCD4; parameters: species or system HIV-1; details: relative to peptide 1

CC[C@H](C)[C@H](N)C(=O)N[C@@H](CC(N)=O)C(=O)N[C@@H](CC(N)=O)C(=O)N[C@H](C(=O)N1C[C@@H](n2cc([C]34[CH]5[CH]6[CH]7[CH]3[Fe]6754389%10[CH]4[CH]3[CH]8[CH]9[CH]4%10)nn2)C[C@H]1C(=O)N[C@@H](Cc1csc2ccccc12)C(N)=O)[C@@H](C)CC (some centres unmarked) [peptide 3] (H-INNI[X1][Bta]-NH2)
inhibition of S375H mutant binding to sCD4 (gp120YU-2 S375H): resistant

CC[C@H](C)[C@H](N)C(=O)N[C@@H](CC(N)=O)C(=O)N[C@@H](CC(N)=O)C(=O)N[C@H](C(=O)N1C[C@@H](n2nncc2[C]23[CH]4[CH]5[CH]6[CH]2[Fe]56432789[CH]3[CH]2[CH]7[CH]8[CH]39)C[C@H]1C(=O)N[C@@H](Cc1c[nH]c2ccccc12)C(N)=O)[C@@H](C)CC (some centres unmarked) [peptide 6] (H-INNI[X2]W-NH2)
weaker binding than peptide 1 (wt gp120YU-2): ~200 fold
